Data reported in PubChem BioAssay (NCI).
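Step 1: Grow cells in 96-well plates. Step 2: Expose to compound for 48 hours at 5 concentrations. Step 3: Interpolate endpoints linearly; if unreached, use highest concentration. GI50 is the concentration that inhibits growth by half. TGI marks complete inhibition of growth.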

Tests used:
Test in all cases: growth of human tumour cells (NCI), 48 h
SF-539 CNS = tested on: SF-539 CNS
M14 melanoma = tested on: M14 melanoma
IGROV1 ovarian = tested on: IGROV1 ovarian
HCT-116 colon = tested on: HCT-116 colon
CCRF-CEM leukemia = tested on: CCRF-CEM leukemia
EKVX NSCLC = tested on: EKVX NSCLC
UACC-257 melanoma = tested on: UACC-257 melanoma
HOP-62 NSCLC = tested on: HOP-62 NSCLC
BT-549 breast = tested on: BT-549 breast

SMILES | TGI (SF-539 CNS) [µM] | TGI (M14 melanoma) [µM] | TGI (IGROV1 ovarian) [µM] | TGI (HCT-116 colon) [µM] | TGI (CCRF-CEM leukemia) [µM] | TGI (EKVX NSCLC) [µM] | TGI (UACC-257 melanoma) [µM] | TGI (HOP-62 NSCLC) [µM] | TGI (BT-549 breast) [µM] | GI50 (SF-539 CNS) [µM] | GI50 (BT-549 breast) [µM] | GI50 (IGROV1 ovarian) [µM] | GI50 (HCT-116 colon) [µM] | GI50 (EKVX NSCLC) [µM] | GI50 (UACC-257 melanoma) [µM] | GI50 (HOP-62 NSCLC) [µM]
C=CC[n+]1c2ccccc2n2cc([N+](=O)[O-])ccc21 | > 100 | > 100 | 51.5 | 78.7 | 55.3 | > 100 | 44.6 | > 100 | – | – | – | – | – | – | – | –
Cc1ccc(S(=O)CC(CF)OCn2cc(C)c(=O)[nH]c2=O)cc1 (stereo not given) | > 100 | > 100 | > 100 | > 100 | – | – | – | > 100 | > 100 | – | – | – | – | – | – | –
N#Cc1cc2c(n(C3OC(CO)C(O)C(O)C3O)c1=S)CCCCCC2 (stereo not given) | > 100 | > 100 | > 100 | > 100 | > 100 | – | > 100 | > 100 | > 100 | – | – | – | – | – | – | –
O=c1oc(C(C(F)(F)F)C(F)(F)F)nc2ccccc12 | > 100 | > 100 | > 100 | > 100 | > 100 | > 100 | > 100 | > 100 | – | – | – | – | – | – | – | –
COc1ccc(-c2oc3cc(O)cc(O)c3c(=O)c2OC)cc1 | – | > 100 | > 100 | > 100 | > 100 | > 100 | > 100 | > 100 | – | – | – | – | – | – | – | –
Cc1ccc(S(=O)(=O)Nc2nnc(S(N)(=O)=O)s2)cc1 | – | > 100 | – | > 100 | – | > 100 | > 100 | > 100 | > 100 | – | – | – | – | – | – | –
c1ccc(CN2CCC(Nc3ccccc3)(c3nnnn3Cc3ccccc3)CC2)cc1 | 41.5 | 38.5 | > 100 | 53.4 | 88.3 | > 100 | 34.5 | > 100 | – | – | – | – | – | – | – | –
Cc1nnc2n1N=C(c1ccc(Cl)cc1Cl)/C(=C/c1ccc(-c3ccc([N+](=O)[O-])cc3Cl)o1)S2 | 36.6 | – | > 100 | 24.8 | – | > 100 | 41.2 | > 100 | 43.3 | 18.5 | 22.1 | 27.5 | 12.3 | 61.2 | 18.1 | > 100
CCOC(=O)Nn1c(CC#N)nnc1Cc1ccccc1 | > 100 | > 100 | > 100 | > 100 | – | – | > 100 | > 100 | > 100 | – | – | – | – | – | – | –
COC[C@@H](N=Cc1ccc([N+](=O)[O-])cc1)C(C)C | – | > 100 | > 100 | > 100 | > 100 | > 100 | > 100 | – | – | – | – | – | – | – | – | –
CC(C)(C)CC(C)(C)c1cc(O)c(O)c(CN2CCCCC2)c1 | – | 29 | 34.6 | 29.5 | – | 26.4 | 26.1 | 30.1 | 28.4 | – | – | – | – | – | – | –
CCc1cc2c(c3c1CCCC3=O)CC1(Cc3ccc(C(=O)OC)cc3C1)C2 (stereo not given) | > 100 | > 100 | > 100 | > 100 | 91.4 | > 100 | > 100 | > 100 | – | – | – | – | – | – | – | –
C=CCP(=O)(CC=C)C(Cl)Cl | – | > 100 | > 100 | > 100 | > 100 | – | > 100 | > 100 | – | – | – | – | – | – | – | –
COc1ccc(OC)c(SC(CC(=O)c2ccccc2)c2ccccc2)c1 (stereo not given) | 15.7 | 31 | 23.1 | 11 | > 100 | 31.1 | 30.7 | 39.8 | – | – | – | – | – | – | – | –
Cn1c(-c2ccc(/C=N/NC(=S)N/N=C/c3ccc(-c4c[n+]5ccsc5n4C)cc3)cc2)c[n+]2ccsc12 | > 100 | > 100 | > 100 | > 100 | > 100 | > 100 | > 100 | > 100 | – | – | – | – | – | – | – | –
NCC(O)CSCc1ccc(Cl)cc1 (stereo not given) | – | > 100 | > 100 | > 100 | > 100 | – | > 100 | > 100 | > 100 | – | – | – | – | – | – | –
CCN(CC)C(=S)SS(=O)(=O)c1cccc(N)c1 | > 100 | > 100 | – | > 100 | – | > 100 | > 100 | > 100 | > 100 | – | – | – | – | – | – | –
COc1cc2cc(C(=O)N3CC(COS(C)(=O)=O)c4ccc(O)cc43)[nH]c2c(OC)c1OC (stereo not given) | < 0.0001 | – | 0.0378 | 0.138 | > 100 | 0.00645 | 0.00404 | 0.00198 | – | – | – | – | – | – | – | –
CC(C)/C(Cl)=N\OC(NC(=O)P(=O)(c1ccccc1)c1ccccc1)(C(F)(F)F)C(F)(F)F | 27.6 | 15.8 | 28.4 | 21.5 | 22.5 | 63.2 | 42.2 | 32.9 | – | – | – | – | – | – | – | –
O=c1[nH]n(Cc2ccccc2)c2ccc([N+](=O)[O-])cc12 | > 100 | > 100 | > 100 | > 100 | > 100 | > 100 | > 100 | > 100 | – | – | – | – | – | – | – | –
CC(C)=CCNc1nc(Cl)nc2nc[nH]c12 | > 100 | > 100 | > 100 | 69.8 | > 100 | > 100 | > 100 | 79.2 | – | – | – | – | – | – | – | –
